Read-outs that look alike come from different tables or passages of the source.
Key:
Format in all cases: in vivo
[1] = test system: Alopecurus myosuroides (ALOMY); assay: Pre-emergence herbicidal action against ALOMY; details: scored visually after about 3 weeks, 100% = plants have died
In short: (§1)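 Pre-emergence soil-surface spray of compound, formulated as wettable powder or emulsion concentrate, in aqueous suspension or emulsion with 0.5% additive (600 l/ha; rate 320 g/ha or less). Activity rated visually after roughly 3 weeks in the greenhouse as a percentage of untreated controls, 0% meaning no difference.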

[2] = test system: Amaranthus retroflexus (AMARE); assay: Pre-emergence herbicidal action against AMARE; details: visual scoring after about 3 weeks vs untreated controls
In short: as §1

[3] = test system: Avena fatua (AVEFA); assay: Pre-emergence herbicidal action against AVEFA; details: 320 g/ha, visual scoring after about 3 weeks vs untreated controls
In short: as §1

[4] = test system: Digitaria sanguinalis (DIGSA); assay: Pre-emergence herbicidal action against DIGSA; details: dosage 320 g/ha
In short: as §1

[5] = test system: Echinochloa crus-galli (ECHCG); assay: Pre-emergence herbicidal action against ECHCG; details: dosage 320 g/ha
In short: as §1

[6] = test system: Pharbitis purpurea (PHBPU); assay: Pre-emergence herbicidal action against PHBPU; details: dosage 320 g/ha
In short: as §1

[7] = test system: Polygonum convolvulus (POLCO); assay: Pre-emergence herbicidal action against POLCO
In short: as §1

[8] = test system: Verconica persica (VERPE); assay: Pre-emergence herbicidal action against VERPE; details: dosage 320 g/ha
In short: as §1

[9] = test system: Viola tricolor (VIOTR); assay: Pre-emergence herbicidal action against VIOTR
In short: as §1

[10] = test system: Oryza sativa (ORYSA); details: pre-emergence, 80 g/ha, crop plant compatibility, in comparison to untreated controls
In short: (§2)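 Scoring: visual, % of untreated control, about 3 weeks after a pre-emergence application to the soil surface. Application used WP or EC formulations diluted in water with 0.5% additive at 600 l/ha; dosage levels are marked by suffixes a, b and c.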

[11] = test system: Zea mays (ZEAMX); details: pre-emergence, 80 g/ha, crop plant compatibility, in comparison to untreated controls
In short: as §2

[12] = test system: Abutilon theophrasti (ABUTH); assay: Post-emergence herbicidal action against ABUTH; details: visual rating about 3 weeks after treatment vs untreated controls (100% = plants have died, 0% = like control plants)
In short: (§3)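 Greenhouse plants sprayed at the one-leaf stage, 2–3 weeks after sowing, with WP or EC formulations plus 0.5% additive at 600 l/ha water. Activity rated visually after about 3 weeks versus untreated controls (100% = dead, 0% = like control), at 320 g/ha or lower.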

[13] = test system: Alopecurus myosuroides (ALOMY); assay: Post-emergence herbicidal action against ALOMY; details: visual rating about 3 weeks after treatment vs untreated controls (100% = plants have died, 0% = like control plants)
In short: as §3

[14] = test system: Avena fatua (AVEFA); assay: Post-emergence herbicidal action against AVEFA; details: 320 g/ha, visual rating about 3 weeks after treatment
In short: as §3

[15] = test system: Digitaria sanguinalis (DIGSA); assay: Post-emergence herbicidal action against DIGSA; details: visual rating about 3 weeks after treatment
In short: as §3

[16] = test system: Echinochloa crus-galli (ECHCG); assay: Post-emergence herbicidal action against ECHCG
In short: as §3

[17] = test system: Pharbitis purpurea (PHBPU); assay: Post-emergence herbicidal action against PHBPU
In short: as §3

[18] = test system: Polygonum convolvulus (POLCO); assay: Post-emergence herbicidal action against POLCO
In short: as §3

[19] = test system: Setaria viridis (SETVI); assay: Post-emergence herbicidal action against SETVI
In short: as §3

[20] = test system: Verconica persica (VERPE); assay: Post-emergence herbicidal action against VERPE
In short: as §3

[21] = test system: Viola tricolor (VIOTR); assay: Post-emergence herbicidal action against VIOTR
In short: as §3

[22] = test system: Oryza sativa (ORYSA); details: crop plant compatibility, effect in comparison to untreated controls
In short: (§4)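 Greenhouse crops in sandy loam sprayed post-emergence at the one-leaf stage, 2–3 weeks after sowing, with WP or EC formulations in water plus 0.5% additive at 600 l/ha. Damage rated visually about 3 weeks later versus untreated controls (0% = like control, 100% = dead); suffixes a–c denote different doses.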

[23] = test system: Abutilon theophrasti (ABUTH); assay: Pre-emergence herbicidal action against ABUTH; details: Dosage column 320 g/ha (title prints 3200 g/ha); scored visually after about 3 weeks; 100% = plants have died
Description: Seeds of monocotyledonous and dicotyledonous weed plants and crop plants are placed in plastic or organic planting pots and covered with soil. The compounds of the invention, formulated in the form of wettable powders (WP) or as emulsion concentrates (EC), are then applied to the surface of the covering soil as aqueous suspension or emulsion with addition of 0.5% additive at a water application rate equivalent to 600 l/ha. After the treatment, the pots are placed in a greenhouse and kept under good growth conditions for the trial plants. After about 3 weeks, the effect of the preparations is scored visually in comparison with untreated controls as percentages. For example, 100% activity=the plants have died, 0% activity=like control plants.
Tables A1 to A13 below show the effects of selected compounds of the general formula (I) on various harmful plants and at an application rate corresponding to 320 g/ha or lower, which were obtained by the experimental procedure mentioned above. The appendices “a”, “b” and “c” give differentiation by dosage used with otherwise the same harmful plants tested.

[24] = test system: Lolium rigidum (LOLRI); assay: Pre-emergence herbicidal action against LOLRI
In short: as §1

[25] = test system: Matricaria inodora (MATIN); assay: Pre-emergence herbicidal action against MATIN; details: dosage 320 g/ha
In short: as §1

[26] = test system: Setaria viridis (SETVI); assay: Pre-emergence herbicidal action against SETVI
In short: as §1

[27] = test system: Amaranthus retroflexus (AMARE); assay: Post-emergence herbicidal action against AMARE
In short: as §3

[28] = test system: Lolium rigidum (LOLRI); assay: Post-emergence herbicidal action against LOLRI; details: dosage 320 g/ha
In short: as §3

[29] = test system: Zea mays (ZEAMX); details: crop plant compatibility, 80 g/ha, effect vs untreated controls
In short: as §4

Row | Compound | Pre-emergence action against ALOMY ([1]; 320 g/ha) | Pre-emergence action against AMARE in % ([2]; 320 g/ha) | Pre-emergence action against AVEFA in % [3] | Pre-emergence action against ECHCG in % [5] | Pre-emergence action against POLCO in % ([7]; dosage 320 g/ha) | Pre-emergence action against VERPE in % [8] | Pre-emergence action against VIOTR in % ([9]; 320 g/ha, Viola tricolor) | Pre-emergence action against VIOTR in % ([9]; dosage 80 g/ha) | Post-emergence action against ABUTH in % ([12]; 320 g/ha) | Post-emergence action against ALOMY in % ([13]; 320 g/ha) | Post-emergence action against AVEFA in % [14] | Post-emergence action against ECHCG in % ([16]; dosage 80 g/ha) | Post-emergence action against ECHCG in % ([16]; dosage 320 g/ha) | Post-emergence action against PHBPU in % ([17]; dosage 320 g/ha) | Post-emergence action against POLCO in % ([18]; dosage 80 g/ha) | Post-emergence action against POLCO in % ([18]; dosage 320 g/ha) | Post-emergence action against SETVI in % ([19]; dosage 320 g/ha) | Post-emergence action against VERPE in % ([20]; 320 g/ha, VERPE) | Post-emergence action against VIOTR in % ([21]; 320 g/ha) | further results
1 | COC(=O)COc1nn(-c2ncccc2C(F)(F)F)c(-c2cncc(F)c2)c1I [Example I-223] | 90% | 90% | 100% | 80% | 80% | 80% | 100% | 90% | 80% | 80% | 80% | 80% | 90% | 80% | 80% | 80% | 80% | 80% | 80% | Pre-emergence action against DIGSA in % [4]: 80%; Pre-emergence action against PHBPU in % [6]: 80%; Pre-emergence action against ORYSA in % [10]: 10%; Pre-emergence action against ZEAMX in % [11]: 20%; Post-emergence action against DIGSA in % ([15]; 80 g/ha): 80%; Post-emergence action against DIGSA in % ([15]; 320 g/ha): 90%; Post-emergence action against PHBPU in % ([17]; dosage 80 g/ha): 80%; Post-emergence action against ORYSA in % ([22]; 80 g/ha): 10%; Post-emergence action against ORYSA in % ([22]; 320 g/ha): 20%
2 | CCOC(=O)CNC(=O)COc1nn(-c2ncccc2F)c(-c2ccc(OC)nc2)c1Br [Example I-48] | 100% | 100% | 100% | 100% | 90% | 100% | 100% | 100% | 90% | 100% | 100% | 80% | 90% | 90% | 80% | 90% | 80% | 90% | 90% | Pre-emergence action against ABUTH [23]: 80%; Pre-emergence action against ALOMY ([1]; 80 g/ha): 80%; Pre-emergence action against AMARE in % ([2]; 80 g/ha): 90%; Pre-emergence action against LOLRI in % ([24]; dosage 80 g/ha): 100%; Pre-emergence action against LOLRI in % ([24]; dosage 320 g/ha): 100%; Pre-emergence action against MATIN in % [25]: 100%; Pre-emergence action against POLCO in % ([7]; dosage 80 g/ha): 90%; Pre-emergence action against SETVI in % ([26]; dosage 80 g/ha): 100%; Pre-emergence action against SETVI in % ([26]; dosage 320 g/ha): 100%; Post-emergence action against ABUTH in % ([12]; 80 g/ha): 90%; Post-emergence action against ALOMY in % ([13]; 80 g/ha): 100%; Post-emergence action against AMARE in % ([27]; 80 g/ha, visual rating about 3 weeks after treatment vs untreated controls (100% = plants have died, 0% = like control plants)): 80%; Post-emergence action against AMARE in % ([27]; 320 g/ha, visual rating about 3 weeks after treatment): 80%; Post-emergence action against LOLRI in % [28]: 80%; Post-emergence action against SETVI in % ([19]; dosage 80 g/ha): 80%; Post-emergence action against VERPE in % ([20]; dosage 80 g/ha): 90%; Post-emergence action against VIOTR in % ([21]; 80 g/ha): 80%; Post-emergence action against ZEAMX in % [29]: 20%

— patent US20240041042A1, “1-(PYRIDYL)-5-AZINYLPYRAZOLE DERIVATIVES, AND THEIR USE FOR CONTROL OF UNDESIRED PLANT GROWTH” (Bayer Aktiengesellschaft, priority 2020, published 2024)
